The record followed here is patent US8148392B2, “2-indolyl imidazo [4,5-d] phenanthroline derivatives and their use in the treatment of cancer” (Lorus Therapeutics Inc., priority 2005, dated 2012).

Molecules are shown by their SMILES. “Also recorded” adds a separate entry of the source. Where two headings read alike, the source gives them in different places.

Common to all, as to format: cell-based, human
Test [1] deals with KLF4. Kind of test: KLF4 gene expression by RT-PCR, DU-145. As to conditions: DU-145, relative to vehicle control as 1. The text has this:
(§1) Gene expression levels of KLF4, induced by compounds of Formula I, were also examined on various cancer cell types by RT-PCR. Fold changes in KLF4 in compound-treated cells were expressed relative to KLF4 expression in vehicle control-treated cells of respective cell type as “1”. […] Additionally, xenografts of MDA-MB-435 implanted into mammary fat pads of female SCID mice have shown immunohistochemical staining consistent with melanocytic origin (Ellison G, Klinowska T, Westwood R F, Docter E, French T, Fox J C. (2002) Mol Pathol. 55(5): 294-299). The breast cancer cell line MDA-MB-435 may be expected to function differently than the other breast cancer cell lines.

The next test has as its system Cyclin D1. Kind of test: Cyclin D1 gene expression in HT-29 cells, RT-PCR. As to conditions: for Cyclin D1 expression change with zinc supplement: HT-29, 1 μM compound plus ZnCl2; for Cyclin D1 gene expression, change: HT-29, 1 μM, in words. On the procedure:
Gene and protein expression of Cyclin D1 after treatment with compound 3 was determined by RT-PCR and Western blotting as shown in FIGS. 43A and 43B, respectively, as follows. HT-29 cells were treated with 1 μM compound 3 for indicated time. Total RNA was extracted and gene expression level was determined by RT-PCR. Cyclin D1 protein expression in HT-29 cell lysate was determined by SDS-PAGE followed by Western blotting.
To identify the cell cycle regulatory pathway involved in compound 3-mediated cell cycle arrest as shown in Example 23 and 41, particularly associated with G1/S phase, expression of the key cell cycle regulator of G1/S phase progression, Cyclin D1, was examined.
The ability of compounds of Formula I to modulate gene expression of MT1A (FIG. 55A), MTF-1 (FIG. 55B), Cyclin D1 (FIG. 55C) and KLF4 (FIG. 55D) was determined by RT-PCR. HT-29 cells were treated with 1 μM compound 3 or compound 7, 35 μM ZnCl2, compound 3 and ZnCl2 together, or compound 7 and ZnCl2 together for 8 to 16 hr. The respective gene expression was normalized with β-actin gene expression in the same sample. Fold change in gene expression was expressed relative to the respective gene level of DMSO control.
The effect of compound 3 and compound 64 on gene expression changes in MT1A (FIG. 57A), MTF-1 (FIG. 57B), Cyclin D1 (FIG. 57C) and KLF4 (FIG. 57D) in HT-29 cells was determined by RT-PCR. HT-29 cells were treated with 1 μM compound 3 or compound 64, 35 μM ZnCl2, compound 3 and ZnCl2 together, or compound 64 and ZnCl2 together for 8 to 16 hr. The respective gene expression was normalized with β-actin gene expression in the same sample. Fold change in gene expression was expressed relative to the respective gene level of DMSO control.

Test [2] relates to KLF4. The test can be described thus: KLF4 gene expression by RT-PCR, HT-29. Conditions: for KLF4 expression change with zinc supplement: HT-29, 1 μM compound plus 35 μM ZnCl2, 16 hr; for KLF4 gene expression, change: HT-29, 1 μM, in words; for KLF4 (gene fold increase): HT-29, relative to vehicle control as 1. The procedure: To determine whether compounds of Formula I can chelate zinc in cells, the effect of compound 3 on the expression level of a zinc-regulated gene, metallothionein 1A (MT1A), in human colon carcinoma HT-29 cells, was determined. HT-29 cells, 1×10^6 cells in 10 mL volume of the growth medium were seeded in 100 mm dishes and incubated overnight at 37° C. The medium was removed and replaced with the growth medium containing 35 μM ZnCl2, 1 μM or 4 μM TPEN (NNNN-tetrakis(2-pyridyl-methyl)ethylenediamine), or 1 μM or 4 μM compound 3, or 0.1% DMSO vehicle control. After incubation for 16 hours, the cells were detached by trypsinization, collected by centrifugation and washed once with PBS. Total RNA was extracted by using TRIZOL (Invitrogen, Life Technologies, Carlsbad, Calif.), following manufacturer's instruction, and the level of MT1A mRNA was measured by real time PCR using the comparative CT method as follows. First strand cDNA was synthesized from 200 ng total RNA in Biometra Tpersonal Thermal Cycler (Abgene, UK), using pd(N)6 random hexamer (Amersham Biosciences, Piscataway, N.J.) and SuperScript™ II Reverse Transcriptase kit (Invitrogen) by following manufacturer's protocol. Real-time PCR was performed in ABI Prism 7000 Sequence Detection System (Applied Biosystems Inc., ABI, Foster City, Calif.), using 5 μL of cDNA synthesized by above-mentioned procedure and respective TaqMan® Gene Expression Assays (ABI) by following ABI TaqMan® Universal PCR master mix protocol.
The ability of compounds of Formula I to modulate the mRNA level of a transition metal-regulated tumour suppressor gene was determined in vitro as follows. Compound 3 was tested to determine its ability to increase the expression of zinc-regulated tumour suppressor KLF4 mRNA in colon carcinoma HT-29 cells. […] HT-29 cells were incubated for 16 hours with DMSO as a vehicle control, 35 μM ZnCl2, 1 μM or 4 μM of compound 3, or 1 μM or 4 μM TPEN for 16 hours and mRNA was extracted from the cells as described in Example 19. The expression of KLF4 mRNA was analyzed by real-time polymerase chain reaction using the comparative CT method also as described in Example 19. Compound 3 induced the expression of KLF4 mRNA (approximately 8-fold) in HT-29 cells compared with HT-29 cells treated with vehicle alone (See FIG. 8).
as §1
The change in gene expression of KLF4 upon zinc depletion following compound 3 treatment was determined by RT-PCR as follows. HT-29 cells were treated with 1 μM compound 3 for the indicated time (FIG. 39A) or HT-29 cells were treated with 1 μM compound 3, 35 μM ZnCl2 or compund 3 and ZnCl2 together for 16 hr (FIG. 39B). Total RNA was extracted and gene expression level was determined by RT-PCR.
Fold change in KLF4 gene expression was presented relative to KLF4 expression in non-specific siRNA-transfected cells treated with vehicle control.

The test system of test [3] is KLF4. The test can be described thus: KLF4 gene expression by RT-PCR, CCRF-CEM. Conditions: relative to vehicle control as 1.
From the text: as §1

In test [4] the test system is KLF4. The test can be described thus: KLF4 gene expression by RT-PCR, HCT-116. As to conditions: HCT-116, relative to vehicle control as 1.
From the text: as §1

Another test has as its system MOLT-4 leukemia cells. The test can be described thus: XTT cell proliferation assay, MOLT-4. As to conditions: read-out: IC50 (cell growth inhibition). The procedure: Cell growth inhibition IC50 (μM) by compounds of Formula I was tested on various cancer cell types by XTT cell proliferation assay. The growth inhibitory effects of the compounds of Formula I as shown below for the melanoma cell line SK-MEL-2 were reproducible by Lorus Therapeutics Inc.
(Formazan colour is commonly taken as a measure of viable cells.)

In test [5] the test system is KLF4. Kind of test: KLF4 gene expression by RT-PCR, PC-3. As to conditions: PC-3, relative to vehicle control as 1.
From the text: as §1

The IC50 is the concentration that inhibits the measured activity by half. Take `Cc1[nH]c2ccccc2c1-c1nc2c3cccnc3c3ncccc3c2[nH]1` [Compound 3]: the “KLF4 (gene fold increase)” value worked out at 9.16 fold in the test on KLF4 [1]; 6.5 fold with KLF4 [2]; 28.05 fold in the test with KLF4 [3]; 5.88 fold in the test with KLF4 [4]; 16.28 fold in the test on KLF4 [5]. The “Cyclin D1 expression change with zinc supplement” value (from here on “Cyclin D1 expression change”) in the test with Cyclin D1 is “reversed in the presence of 25 μM ZnCl2; also recorded: reversed by addition of zinc supplement”. Further, the “Cyclin D1 gene expression, change” value with Cyclin D1 is “Time-dependent decreases; also recorded: decrease in both gene (FIG. 43A) and protein (FIG. 43B) levels of Cyclin D1; also recorded: significantly decreased; also recorded: decreased expressions of MT1A, MTF-1 and Cyclin D1”. The “KLF4 expression change with zinc supplement” value (from here on “KLF4 expression change”) with KLF4 [2] was “reversed by addition of zinc supplement”. Further, the “KLF4 gene expression, change” value in the test on KLF4 [2] is recorded as “Time-dependent increase in KLF4; also recorded: increased expression of KLF4”. Also, the “induction of KLF4 mRNA” value with KLF4 [2] (HT-29, 16 hours, 1 μM or 4 μM, versus vehicle) was “approximately 8 fold”. Further, the “KLF4 gene expression after MTF-1 gene knock-down by siRNA” value in the test with KLF4 [2] (HT-29 transfected with MTF-1 siRNA) is “still increased”. Moreover, the IC50 with MOLT-4 leukemia cells (Homo sapiens) turned out to be 150 nM.
For the compound `CCc1cccc2c(-c3nc4c5cccnc5c5ncccc5c4[nH]3)c(C(C)(C)C)[nH]c12` [Compound 64], the “KLF4 (gene fold increase)” value in the test on KLF4 [1] was found to be 6.75 fold; with KLF4 [2] it was 5.96 fold; in the test with KLF4 [3], 73.77 fold; in the test on KLF4 [4], 3.05 fold; in the test with KLF4 [5], 1.36 fold. Also, in the test with Cyclin D1, the “Cyclin D1 expression change” value is “reversed by addition of zinc supplement”. The “Cyclin D1 gene expression, change” value with Cyclin D1 was “decreased expressions of MT1A, MTF-1 and Cyclin D1”. For the same compound, the “KLF4 expression change” value in the test with KLF4 [2] was “reversed by addition of zinc supplement”. In addition, the “KLF4 gene expression, change” value in the test with KLF4 [2] was “increased expression of KLF4”. For the same compound, in the test on MOLT-4 leukemia cells, the IC50 was found to be 175 nM.
For `Cc1[nH]c2ccc(F)cc2c1-c1nc2c3cccnc3c3ncccc3c2[nH]1` [Compound 7], the “KLF4 (gene fold increase)” value with KLF4 [1] amounted to 11.24 fold; with KLF4 [2], 8.66 fold; with KLF4 [3], 48.5 fold; in the test on KLF4 [4] it was 6.15 fold; with KLF4 [5], 12.17 fold. In addition, the “Cyclin D1 expression change” value in the test on Cyclin D1 is given as “reversed by addition of zinc supplement”. Also, the “Cyclin D1 gene expression, change” value in the test on Cyclin D1 is “decreased expressions of MT1A, MTF-1 and Cyclin D1”. Further, the “KLF4 expression change” value in the test with KLF4 [2] is “reversed by addition of zinc supplement”. Moreover, the “KLF4 gene expression, change” value in the test with KLF4 [2] is on record as “increased expression of KLF4”. Also, the IC50 with MOLT-4 leukemia cells (Homo sapiens) is 70 nM.
